ChEMBL document CHEMBL5500384, “New synergistic benzoquinone scaffolds as inhibitors of mycobacterial cytochrome bc1 complex to treat multi-drug resistant tuberculosis” (Eur J Med Chem, 2024)

Columns and labels:
[1] = Acute toxicity in Albino mouse assessed as change in serum creatine level at 50 to 2000 mg/kg, po measured after 14 days (reference value: 0.9 mg/dl); assay type: organism-based; conditions: in vivo, 336 h, dose 50-2000 mg/kg, time 14 day
[2] = Renal toxicity in Albino mouse assessed as structural absorbability abnormalities at 50 to 2000 mg/kg, po measured after 14 days; assay type: organism-based; conditions: in vivo, 336 h, dose 50-2000 mg/kg, time 14 day
[3] = Acute toxicity in Albino mouse assessed as change in lymphocytes at 50 to 2000 mg/kg, po measured after 14 days (reference value: 21%); assay type: organism-based; conditions: in vivo, 336 h, dose 50-2000 mg/kg, time 14 day
[4] = Renal toxicity in Albino mouse assessed as change in renal tubules at 50 to 2000 mg/kg, po measured after 14 days; assay type: organism-based; conditions: in vivo, 336 h, dose 50-2000 mg/kg, time 14 day
[5] = Cytotoxicity against african green monkey Vero cells assessed as cell viability at 6.25 ug/ml by MTT assay; assay type: toxicity, cell-based; conditions: chlorocebus sabaeus, at 6.25 µg/mL, read-out: Activity
[6] = Cytotoxicity against african green monkey Vero cells assessed as cell viability at 50 ug/ml by MTT assay; assay type: toxicity, cell-based; conditions: chlorocebus sabaeus, at 50 µg/mL, read-out: Activity
[7] = Pulmonary toxicity in Albino mouse assessed as change in bronchi structure at 50 to 2000 mg/kg, po measured after 14 days; assay type: organism-based; conditions: in vivo, 336 h, dose 50-2000 mg/kg, time 14 day
[8] = Acute toxicity in Albino mouse assessed as change in ESR at 50 to 2000 mg/kg, po measured after 14 days (reference value: 10 millimeter); assay type: organism-based; conditions: in vivo, 336 h, dose 50-2000 mg/kg, time 14 day
[9] = Hepatotoxicity in Albino mouse assessed as change in hepatocytes at 50 to 2000 mg/kg, po measured after 14 days; assay type: toxicity, organism-based; conditions: in vivo, 336 h, dose 50-2000 mg/kg, time 14 day
[10] = Cytotoxicity against african green monkey Vero cells assessed as cell viability at 100 ug/ml by MTT assay; assay type: toxicity, cell-based; conditions: chlorocebus sabaeus, at 100 µg/mL, read-out: Activity
[11] = Acute toxicity in Albino mouse assessed as change in SGPT count at 50 to 2000 mg/kg, po measured after 14 days (reference value: 52 IU/L); assay type: organism-based; conditions: in vivo, 336 h, dose 50-2000 mg/kg, time 14 day
[12] = Pulmonary toxicity in Albino mouse assessed as appearance of cilia at 50 to 2000 mg/kg, po measured after 14 days; assay type: organism-based; conditions: in vivo, 336 h, dose 50-2000 mg/kg, time 14 day
[13] = Pulmonary toxicity in Albino mouse assessed as change in squamous pneumocytes at 50 to 2000 mg/kg, po measured after 14 days; assay type: organism-based; conditions: in vivo, 336 h, dose 50-2000 mg/kg, time 14 day
[14] = Pulmonary toxicity in Albino mouse assessed as change in alveoli structure at 50 to 2000 mg/kg, po measured after 14 days; assay type: organism-based; conditions: in vivo, 336 h, dose 50-2000 mg/kg, time 14 day
[15] = Acute toxicity in po dosed Albino mouse assessed as mortality after 14 days; assay type: organism-based; conditions: in vivo, time 14 day
[16] = Cytotoxicity against african green monkey Vero cells assessed as cell viability at 25 ug/ml by MTT assay; assay type: toxicity, cell-based; conditions: chlorocebus sabaeus, at 25 µg/mL, read-out: Activity
[17] = Pulmonary toxicity in Albino mouse assessed as appearance of goblet cells at 50 to 2000 mg/kg, po measured after 14 days; assay type: organism-based; conditions: in vivo, 336 h, dose 50-2000 mg/kg, time 14 day
[18] = Hepatotoxicity in Albino mouse assessed as change in bile duct at 50 to 2000 mg/kg, po measured after 14 days; assay type: toxicity, organism-based, Liver; conditions: in vivo, 336 h, dose 50-2000 mg/kg, time 14 day
[19] = Renal toxicity in Albino mouse assessed as change in proximal convoluted tubules at 50 to 2000 mg/kg, po measured after 14 days; assay type: organism-based; conditions: in vivo, 336 h, dose 50-2000 mg/kg, time 14 day
[20] = Acute toxicity in Albino mouse assessed as change in total leucocyte count at 50 to 2000 mg/kg, po measured after 14 days (reference value: 7400 mm3); assay type: organism-based; conditions: in vivo, 336 h, dose 50-2000 mg/kg, time 14 day
[21] = Hepatotoxicity in Albino mouse assessed as change in central vein at 50 to 2000 mg/kg, po measured after 14 days; assay type: toxicity, organism-based; conditions: in vivo, 336 h, dose 50-2000 mg/kg, time 14 day
[22] = system: Mycobacterium tuberculosis; assay: Antitubercular activity against Mycobacterium tuberculosis H37Rv incubated for 5 days by microtiter plate method; assay type: functional; conditions: 120 h, time 5 day
[23] = Acute toxicity in Albino mouse assessed as change in neutrophils at 50 to 2000 mg/kg, po measured after 14 days (reference value: 75%); assay type: organism-based; conditions: in vivo, 336 h, dose 50-2000 mg/kg, time 14 day
[24] = Pulmonary toxicity in Albino mouse assessed as change in alveolar sacs at 50 to 2000 mg/kg, po measured after 14 days; assay type: organism-based; conditions: in vivo, 336 h, dose 50-2000 mg/kg, time 14 day
[25] = Acute toxicity in Albino mouse assessed as change in eosinophils at 50 to 2000 mg/kg, po measured after 14 days (reference value: 3%); assay type: organism-based; conditions: in vivo, 336 h, dose 50-2000 mg/kg, time 14 day
[26] = Acute toxicity in Albino mouse assessed as mortality at 300 mg/kg, po after 5 to 8 hrs; assay type: organism-based; conditions: in vivo, time 5-8 hrs
[27] = Hepatotoxicity in Albino mouse assessed as change in hepatic artery at 50 to 2000 mg/kg, po measured after 14 days; assay type: toxicity, organism-based, Liver; conditions: in vivo, 336 h, dose 50-2000 mg/kg, time 14 day
[28] = Acute toxicity in Albino mouse assessed as change in platelet count at 50 to 2000 mg/kg, po measured after 14 days (reference value: 3.24 mm3); assay type: organism-based; set-up: unit not given here; conditions: in vivo, 336 h, dose 50-2000 mg/kg, time 14 day
[29] = Renal toxicity in Albino mouse assessed as change in Bowman's capsule at 50 to 2000 mg/kg, po measured after 14 days; assay type: organism-based; conditions: in vivo, 336 h, dose 50-2000 mg/kg, time 14 day
[30] = Renal toxicity in Albino mouse assessed as change in renal corpuscles at 50 to 2000 mg/kg, po measured after 14 days; assay type: organism-based; conditions: in vivo, 336 h, dose 50-2000 mg/kg, time 14 day
[31] = Acute toxicity in Albino mouse assessed as mortality at 2000 mg/kg, po after 2 to 4 hrs; assay type: organism-based; conditions: in vivo, time 2-4 hrs
[32] = Acute toxicity in Albino mouse assessed as change in SGOT count at 50 to 2000 mg/kg, po measured after 14 days (reference value: 42 IU/L); assay type: organism-based; conditions: in vivo, 336 h, dose 50-2000 mg/kg, time 14 day
[33] = Acute toxicity in Albino mouse assessed as change in serum urea level at 50 to 2000 mg/kg, po measured after 14 days (reference value: 46 mg/dl); assay type: organism-based; conditions: in vivo, 336 h, dose 50-2000 mg/kg, time 14 day
[34] = Acute toxicity in Albino mouse assessed as mortality at 50 mg/kg, po after 14 days; assay type: organism-based; conditions: in vivo, 336 h, time 14 day
[35] = Acute toxicity in Albino mouse assessed as change in RBC count measured per million cells at 50 to 2000 mg/kg, po measured after 14 days (reference value: 9.15 microL); assay type: organism-based, Erythrocyte; conditions: in vivo, 336 h, dose 50-2000 mg/kg, time 14 day
[36] = Cytotoxicity against african green monkey Vero cells assessed as cell viability at 12.5 ug/ml by MTT assay; assay type: toxicity, cell-based; conditions: chlorocebus sabaeus, at 12.5 µg/mL, read-out: Activity
[37] = Hepatotoxicity in Albino mouse assessed as change in portal vein at 50 to 2000 mg/kg, po measured after 14 days; assay type: toxicity, organism-based; conditions: in vivo, 336 h, dose 50-2000 mg/kg, time 14 day
[38] = Acute toxicity in Albino mouse assessed as change in ALP level at 50 to 2000 mg/kg, po measured after 14 days (reference value: 28 IU/L); assay type: organism-based; conditions: in vivo, 336 h, dose 50-2000 mg/kg, time 14 day
[39] = Renal toxicity in Albino mouse assessed as change in distal convoluted tubules at 50 to 2000 mg/kg, po measured after 14 days; assay type: organism-based; conditions: in vivo, 336 h, dose 50-2000 mg/kg, time 14 day
[40] = Renal toxicity in Albino mouse assessed as extravasation of RBC at 50 to 2000 mg/kg, po measured after 14 days; assay type: organism-based, Erythrocyte; conditions: in vivo, 336 h, dose 50-2000 mg/kg, time 14 day
[41] = Cytotoxicity against african green monkey Vero cells by MTT assay; assay type: toxicity, cell-based; conditions: chlorocebus sabaeus
[42] = Hepatotoxicity in Albino mouse assessed as change in portal tracks at 50 to 2000 mg/kg, po measured after 14 days; assay type: toxicity, organism-based; conditions: in vivo, 336 h, dose 50-2000 mg/kg, time 14 day
[43] = Acute toxicity in Albino mouse assessed as change in monocytes at 50 to 2000 mg/kg, po measured after 14 days (reference value: 1%); assay type: organism-based; conditions: in vivo, 336 h, dose 50-2000 mg/kg, time 14 day
[44] = Acute toxicity in Albino mouse assessed as change in LDH level at 50 to 2000 mg/kg, po measured after 14 days (reference value: 1052 IU/L); assay type: organism-based; conditions: in vivo, 336 h, dose 50-2000 mg/kg, time 14 day
[45] = Acute toxicity in Albino mouse assessed as change in hemoglobin level at 50 to 2000 mg/kg, po measured after 14 days (reference value: 12.8 g/dl); assay type: organism-based; conditions: in vivo, 336 h, dose 50-2000 mg/kg, time 14 day
[46] = Cytotoxicity against african green monkey Vero cells assessed as cell viability at 3.125 ug/ml by MTT assay; assay type: toxicity, cell-based; conditions: chlorocebus sabaeus, at 3.125 µg/mL, read-out: Activity
[47] = Renal toxicity in Albino mouse assessed as change in tubular capillaries at 50 to 2000 mg/kg, po measured after 14 days; assay type: organism-based; conditions: in vivo, 336 h, dose 50-2000 mg/kg, time 14 day

O=C1C(Cl)=C(N2C(=O)C(Cl)C2c2ccc(Cl)cc2)C(=O)c2ccccc21 (stereo not drawn)
Activity [1]: 0.41 mg/dL
Activity [2]: Non-Toxic
Activity [3]: 44%
Activity [4]: Non-Toxic
viability at 6.25 ug/ml [5]: 100%
viability at 50 ug/ml [6]: 24.2%
Activity [7]: Non-Toxic
Activity [8]: 14 millimeter/hr
Activity [9]: Non-Toxic
viability at 100 ug/ml [10]: 8.6%
Activity [11]: 42.09 IU/L
Activity [12]: Non-Toxic
Activity [13]: Non-Toxic
Activity [14]: Non-Toxic
LD50 at 336 h [15]: 50 mg/kg
viability at 25 ug/ml [16]: 38%
Activity [17]: Non-Toxic
Activity [18]: Non-Toxic
Activity [19]: Non-Toxic
Activity [20]: 9400 mm3
Activity [21]: Non-Toxic
MIC [22]: 7.69 µM
Activity [23]: 70%
Activity [24]: Non-Toxic
Activity [25]: 4%
Activity [26]: Toxic
Activity [27]: Non-Toxic
Activity [28]: 6.1
Activity [29]: Non-Toxic
Activity [30]: Non-Toxic
Activity [31]: Toxic
Activity [32]: 136.54 IU/L
Activity [33]: 56.19 mg/dL
Activity [34]: Non-Toxic
Activity [35]: 9.6
viability at 12.5 ug/ml [36]: 69.1%
Activity [37]: Non-Toxic
Activity [38]: 433.93 IU/L
Activity [39]: Non-Toxic
Activity [40]: Non-Toxic
Activity [41]: Dose-Dependent Effect
Activity [42]: Non-Toxic
Activity [43]: 1%
Activity [44]: 134.22 IU/L
Activity [45]: 13.1 g/dL
viability at 3.125 ug/ml [46]: 100%
Activity [47]: Non-Toxic

O=C1C(Cl)=C(/N=C/c2ccccc2)C(=O)c2ccccc21
MIC [22]: 12.5 µg/mL
